From patent US6626122B2, “Deactivatable biocides in ballast water” (Chevron U.S.A. Inc, priority 2001, dated 2003)
Values after ≈ are worked out from the molar mass of the structure shown.

Key:
bacterial inoculum [1] = experiment: Neutralization of biocides with monoethanolamine; type: cell-based; conditions: for Growth, Neutralization of Biocides with MEA: minimal media:FT diesel 10:1; for onset of microbial growth (delayed from 3 days): no MEA
Description: In all experiments, a 10:1 ratio of minimal media to Fischer-Tropsch diesel fuel were prepared and evaluated in 250 ml flasks.
In addition to these experiments, several controls were run without Glutaraldehyde as follows: […]

[2] = system: Larval Sheepshead Minnow (Cyprinodon variegatus); experiment: in vivo; conditions: Cyprinodon variegatus (sheepshead minnow), 96 h
Description: (§1) […]. EPA/600/4-90/027F Washington, D.C.) conducted at Pacific Eco-Risk Laboratories, Martinez, Calif.
(§2) LOEC is the Lowest Observable Effect Concentration and is defined as the minimum concentration where mortality is observed for the test species. […] LC-50, the concentration that will cause mortality of 50% of the organisms tested within 96 h, is a calculated value based on all observations.
(§3) The solutions were mixed for 48 hours prior to the start of the bioassays. The solutions were diluted to perform bioassays at starting glutaraldehyde concentrations of 100, 50, 37.5, 25, and 10.5 mg/L. The results are summarized in Table X.

in vivo = conditions: Cyprinodon variegatus (sheepshead minnow, larval)
Description: as §1, §2, §3

bacterial inoculum [3] = experiment: Evaluation of biocides: inhibition of growth on FT diesel and ALAD diesel; type: cell-based, alkane degrading organisms; as to Growth, Test Results on ALAD Diesel Fuel: key: −: No Growth; +: Growth (White Unless Otherwise Indicated); as to Growth, Test Results on Fischer-Tropsch Diesel Fuel: key: −: No Growth; +: Growth (White Unless Otherwise Indicated)
Description: The ability of biocides to inhibit growth on a FT diesel and a low aromatics diesel fuel from Example 1 was investigated.
Test Conditions: 90 ml of growth media and 10 ml of either FT diesel or low sulfur (ALAD) diesel was added to 250 ml flasks. […] In addition to the 2 alkynes, glutaraldehyde (glutaric dialdehyde 50%), was tested. The following summarizes the test conditions:
100 ppm inhibitor (on a total test volume basis or 1000 ppm in diesel)
1% inhibitor (on a total test volume basis or 10% in diesel).
After inoculation, the flasks were place on a shaker-table (135 rpm) at room temperature and observed daily.

O=CCCCC=O [G, glutaraldehyde]
Growth, Neutralization of Biocides with MEA (bacterial inoculum [1]; 1 ppm G, Time 0 days): − | Growth, Neutralization of Biocides with MEA (bacterial inoculum [1]; 1 ppm G, Time 1 days): − | Growth, Neutralization of Biocides with MEA (bacterial inoculum [1]; 1 ppm G, Time 2 days): − | Growth, Neutralization of Biocides with MEA (bacterial inoculum [1]; 1 ppm G, Time 3 days): − | Growth, Neutralization of Biocides with MEA (bacterial inoculum [1]; 1 ppm G, Time 7 days): − | Growth, Neutralization of Biocides with MEA (bacterial inoculum [1]; 1 ppm G, Time 9 days): + | Growth, Neutralization of Biocides with MEA (bacterial inoculum [1]; 1 ppm G, Time 14 days): + | onset of microbial growth (delayed from 3 days) (bacterial inoculum [1]; 1 ppm of glutaraldehyde): 9 days | Growth, Neutralization of Biocides with MEA (bacterial inoculum [1]; 10 ppm G, Time 0 days): − | Growth, Neutralization of Biocides with MEA (bacterial inoculum [1]; 10 ppm G, Time 1 days): − | Growth, Neutralization of Biocides with MEA (bacterial inoculum [1]; 10 ppm G, Time 2 days): − | Growth, Neutralization of Biocides with MEA (bacterial inoculum [1]; 10 ppm G, Time 3 days): − | Growth, Neutralization of Biocides with MEA (bacterial inoculum [1]; 10 ppm G, Time 7 days): − | Growth, Neutralization of Biocides with MEA (bacterial inoculum [1]; 10 ppm G, Time 9 days): − | Growth, Neutralization of Biocides with MEA (bacterial inoculum [1]; 10 ppm G, Time 14 days): − | onset of microbial growth (delayed from 3 days) (bacterial inoculum [1]; 10 ppm of glutaraldehyde): more than 14 days | Growth, Neutralization of Biocides with MEA (bacterial inoculum [1]; 100 ppm G, Time 0 days): − | Growth, Neutralization of Biocides with MEA (bacterial inoculum [1]; 100 ppm G, Time 1 days): − | Growth, Neutralization of Biocides with MEA (bacterial inoculum [1]; 100 ppm G, Time 2 days): − | Growth, Neutralization of Biocides with MEA (bacterial inoculum [1]; 100 ppm G, Time 3 days): − | Growth, Neutralization of Biocides with MEA (bacterial inoculum [1]; 100 ppm G, Time 7 days): − | Growth, Neutralization of Biocides with MEA (bacterial inoculum [1]; 100 ppm G, Time 9 days): − | Growth, Neutralization of Biocides with MEA (bacterial inoculum [1]; 100 ppm G, Time 14 days): − | LOEC [2]: 25 mg/L | NOEC [2]: 13 mg/L | LC50 at 96 h (in vivo; 96 h, control experiment, separate compounds): 26 µg/mL (≈ 260 µM) | LC50 at 96 h (in vivo; second experiment, as starting glutaraldehyde concentration, solutions mixed for 48 hours prior to bioassay): 25 µg/mL (≈ 250 µM) | effectiveness as biocide (inhibits microbial growth) (bacterial inoculum [3]; ALAD diesel fuel): effective at a lower concentration | Growth, Test Results on Fischer-Tropsch Diesel Fuel (bacterial inoculum [3]; FT Diesel + 1 Wt % biocide, Day 0): − | Growth, Test Results on Fischer-Tropsch Diesel Fuel (bacterial inoculum [3]; FT Diesel + 1 Wt % biocide, Day 1): − | Growth, Test Results on Fischer-Tropsch Diesel Fuel (bacterial inoculum [3]; FT Diesel + 1 Wt % biocide, Day 5): − | Growth, Test Results on Fischer-Tropsch Diesel Fuel (bacterial inoculum [3]; FT Diesel + 1 Wt % biocide, Day 7): − | Growth, Test Results on Fischer-Tropsch Diesel Fuel (bacterial inoculum [3]; FT Diesel + 1 Wt % biocide, Day 8): − | Growth, Test Results on Fischer-Tropsch Diesel Fuel (bacterial inoculum [3]; FT Diesel + 1 Wt % biocide, Day 19): − | Growth, Test Results on Fischer-Tropsch Diesel Fuel (bacterial inoculum [3]; FT Diesel + 100 ppm biocide, Day 0): − | Growth, Test Results on Fischer-Tropsch Diesel Fuel (bacterial inoculum [3]; FT Diesel + 100 ppm biocide, Day 1): − | Growth, Test Results on Fischer-Tropsch Diesel Fuel (bacterial inoculum [3]; FT Diesel + 100 ppm biocide, Day 5): − | Growth, Test Results on Fischer-Tropsch Diesel Fuel (bacterial inoculum [3]; FT Diesel + 100 ppm biocide, Day 7): − | Growth, Test Results on Fischer-Tropsch Diesel Fuel (bacterial inoculum [3]; FT Diesel + 100 ppm biocide, Day 8): − | Growth, Test Results on Fischer-Tropsch Diesel Fuel (bacterial inoculum [3]; FT Diesel + 100 ppm biocide, Day 19): + | effectiveness as biocide (inhibits microbial growth) (bacterial inoculum [3]; Fischer-Tropsch diesel fuel): effective at a lower concentration | Growth, Test Results on ALAD Diesel Fuel (bacterial inoculum [3]; LA Diesel + 1 Wt % biocide, Day 0): − | Growth, Test Results on ALAD Diesel Fuel (bacterial inoculum [3]; LA Diesel + 1 Wt % biocide, Day 1): − | Growth, Test Results on ALAD Diesel Fuel (bacterial inoculum [3]; LA Diesel + 1 Wt % biocide, Day 5): − | Growth, Test Results on ALAD Diesel Fuel (bacterial inoculum [3]; LA Diesel + 1 Wt % biocide, Day 7): − | Growth, Test Results on ALAD Diesel Fuel (bacterial inoculum [3]; LA Diesel + 1 Wt % biocide, Day 8): − | Growth, Test Results on ALAD Diesel Fuel (bacterial inoculum [3]; LA Diesel + 1 Wt % biocide, Day 19): − | Growth, Test Results on ALAD Diesel Fuel (bacterial inoculum [3]; LA Diesel + 100 ppm biocide, Day 0): − | Growth, Test Results on ALAD Diesel Fuel (bacterial inoculum [3]; LA Diesel + 100 ppm biocide, Day 1): − | Growth, Test Results on ALAD Diesel Fuel (bacterial inoculum [3]; LA Diesel + 100 ppm biocide, Day 5): − | Growth, Test Results on ALAD Diesel Fuel (bacterial inoculum [3]; LA Diesel + 100 ppm biocide, Day 7): − | Growth, Test Results on ALAD Diesel Fuel (bacterial inoculum [3]; LA Diesel + 100 ppm biocide, Day 8): − | Growth, Test Results on ALAD Diesel Fuel (bacterial inoculum [3]; LA Diesel + 100 ppm biocide, Day 19): −
